Measured values from ChEMBL document CHEMBL3779887, “Robenidine Analogues as Gram-Positive Antibacterial Agents” (J Med Chem, 2016).
In brackets after ≈: the same amount, converted by molar mass. Activity calls are given as the source filed them. The rule behind the calls is not given here.

How the values were obtained:
Type in all cases: functional
Pseudomonas aeruginosa = test: Antibacterial activity against Pseudomonas aeruginosa ATCC 27853 after 20 to 24 hrs
Escherichia coli = test: Antibacterial activity against Escherichia coli ATCC 25922 after 20 to 24 hrs
Staphylococcus aureus = test: Antibacterial activity against methicillin-resistant Staphylococcus aureus after 20 to 24 hrs
Enterococcus = test: Antibacterial activity against vancomycin-resistant Enterococcus after 20 to 24 hrs

Structure (SMILES)	MIC (Pseudomonas aeruginosa)	MIC (Escherichia coli)	MIC (Staphylococcus aureus)	MIC (Enterococcus)	Activity (Escherichia coli)	Activity (Staphylococcus aureus)	Activity (Enterococcus)
N=C(N/N=C/c1cccc(F)c1)N/N=C/c1cccc(F)c1	> 400 µM	> 400 µM	47 µM (≈ 14.2 µg/mL)	71 µM (≈ 21.4 µg/mL)			
N=C(N/N=C/c1c(Cl)cccc1Cl)N/N=C/c1c(Cl)cccc1Cl	> 400 µM	> 400 µM	> 400 µM	> 400 µM			
N=C(N/N=C/c1ccccc1-c1ccccc1)N/N=C/c1ccccc1-c1ccccc1	> 400 µM	> 400 µM	> 400 µM	> 400 µM			
CC(O)Nc1cc(Cl)ccc1/C=N/NC(=N)N/N=C/c1ccc(Cl)cc1NC(C)O (stereo unspecified)	> 400 µM	> 400 µM	66 µM (≈ 29.9 µg/mL)	98 µM (≈ 44.3 µg/mL)			
N=C(N/N=C/c1ccc(C(F)(F)F)cc1)N/N=C/c1ccc(C(F)(F)F)cc1	> 400 µM	> 400 µM	36.5 µM (≈ 14.6 µg/mL)	11.4 µM (≈ 4.57 µg/mL)			
CCC/C(=N\NC(=N)N/N=C(\CCC)c1ccc(Cl)cc1)c1ccc(Cl)cc1			> 400 µM	> 400 µM	inactive		
N=C(N/N=C/c1ccc(O)c([N+](=O)[O-])c1)N/N=C/c1ccc(O)c([N+](=O)[O-])c1	> 400 µM	> 400 µM	> 400 µM	> 400 µM			
N=C(N/N=C/c1ccccc1F)N/N=C/c1ccccc1F	> 400 µM	> 400 µM	> 400 µM	> 400 µM			
N=C(N/N=C/c1ccc(OC(F)(F)F)cc1)N/N=C/c1ccc(OC(F)(F)F)cc1	> 400 µM	> 400 µM	187 µM (≈ 81 µg/mL)	85 µM (≈ 36.8 µg/mL)			
N=C(N/N=C(\C(=O)O)c1ccccc1)N/N=C(\C(=O)O)c1ccccc1			> 400 µM	> 400 µM	inactive		
N=C(N/N=C/c1cnc2ccccc2c1)N/N=C/c1cnc2ccccc2c1						inactive	inactive
C/C(=N\NC(=N)N/N=C(\C)c1ccc(N2CCNCC2)cc1)c1ccc(N2CCNCC2)cc1			243 µM (≈ 112 µg/mL)	278 µM (≈ 128 µg/mL)	inactive		
Cc1ccc(/C=N/NC(=N)N/N=C/c2ccc(C)cc2)cc1	> 400 µM	> 400 µM	9.1 µM (≈ 2.67 µg/mL)	12.1 µM (≈ 3.55 µg/mL)			
CC(=O)Nc1ccc(/C=N/NC(=N)N/N=C/c2ccc(NC(C)=O)cc2)cc1	> 400 µM	> 400 µM	> 400 µM	> 400 µM			
N=C(N/N=C/c1ccc(-c2ccccc2)cc1)N/N=C/c1ccc(-c2ccccc2)cc1	> 400 µM	> 400 µM	282 µM (≈ 118 µg/mL)	106 µM (≈ 44.3 µg/mL)			
COc1ccc(/C=C/C=N/NC(=N)N/N=C/C=C/c2ccc(OC)cc2)cc1			309 µM (≈ 117 µg/mL)	> 400 µM			

Structure (SMILES)	MIC (Pseudomonas aeruginosa)	MIC (Escherichia coli)	MIC (Staphylococcus aureus)	MIC (Enterococcus)	Activity (Escherichia coli)	Activity (Staphylococcus aureus)	Activity (Enterococcus)
N=C(N/N=C/c1csc2ccc(Cl)cc12)N/N=C/c1csc2ccc(Cl)cc12			> 400 µM	33.1 µM (≈ 14.8 µg/mL)			
N=C(N/N=C/c1ccc(Cl)cc1O)N/N=C/c1ccc(Cl)cc1O	> 400 µM	> 400 µM	80 µM (≈ 29.3 µg/mL)	45 µM (≈ 16.5 µg/mL)			
COc1cc(/C=N/NC(=N)N/N=C/c2cc(O)c(O)c(OC)c2)cc(O)c1O	> 400 µM	> 400 µM	> 400 µM	> 400 µM			
C/C(=N\NC(=N)N/N=C(\C)c1ccc(C(F)(F)F)cc1)c1ccc(C(F)(F)F)cc1			> 400 µM	17.2 µM (≈ 7.39 µg/mL)	inactive		
N=C(N/N=C/c1ccc(Br)cc1)N/N=C/c1ccc(Br)cc1	> 400 µM	> 400 µM	> 400 µM	> 400 µM			
COc1cccc(/C=N/NC(=N)N/N=C/c2cccc(OC)c2)c1	> 400 µM	> 400 µM	88 µM (≈ 28.6 µg/mL)	88 µM (≈ 28.6 µg/mL)			
N=C(N/N=C/c1c(F)c(F)c(F)c(F)c1F)N/N=C/c1c(F)c(F)c(F)c(F)c1F	> 400 µM	> 400 µM	> 400 µM	> 400 µM			
N=C(N/N=C/c1ccc(Cl)cc1Cl)N/N=C/c1ccc(Cl)cc1Cl	> 400 µM	> 400 µM	> 400 µM	> 400 µM			
CN(C)c1ccc(/C=N/NC(=N)N/N=C/c2ccc(N(C)C)cc2)cc1	> 400 µM	> 400 µM	30.9 µM (≈ 10.9 µg/mL)	30.9 µM (≈ 10.9 µg/mL)			
C/C(=N\NC(=N)N/N=C(\C)c1ccccc1)c1ccccc1			18.2 µM (≈ 5.34 µg/mL)	49 µM (≈ 14.4 µg/mL)	inactive		
C/C(=N\NC(=N)N/N=C(\C)c1ccc(Br)cc1)c1ccc(Br)cc1			16.4 µM (≈ 7.4 µg/mL)	24.6 µM (≈ 11.1 µg/mL)	inactive		
N=C(N/N=C/c1ccc(O)c(O)c1)N/N=C/c1ccc(O)c(O)c1	> 400 µM	> 400 µM	> 400 µM	> 400 µM			
N=C(N/N=C/c1cc(O)c(O)c(O)c1)N/N=C/c1cc(O)c(O)c(O)c1	322 µM (≈ 116 µg/mL)	> 400 µM	161 µM (≈ 58.2 µg/mL)	> 400 µM			
CCCc1ccc(/C=N/NC(=N)N/N=C/c2ccc(CCC)cc2)cc1	> 400 µM	> 400 µM	83 µM (≈ 29 µg/mL)	73 µM (≈ 25.5 µg/mL)			
N=C(N/N=C/c1cccc(O)c1O)N/N=C/c1cccc(O)c1O	> 400 µM	> 400 µM	88 µM (≈ 29 µg/mL)	262 µM (≈ 86.3 µg/mL)			
N=C(N/N=C/c1ccccc1Cl)N/N=C/c1ccccc1Cl	> 400 µM	> 400 µM	> 400 µM	> 400 µM			
